This note sets out measurements from paper PMC4114533, “Synthesis, Anti-tubulin and Antiproliferative SAR of Steroidomimetic Dihydroisoquinolinones” (Chemmedchem, 2014).

The test system of assay [1] is DU-145 human prostate cancer cells. As to the kind of experiment: Antiproliferative assay (WST-1, 96 h), DU-145. The assay is classed as cell-based. The settings on record: for GI50: Homo sapiens, DU-145 cells, 96 h, WST-1, mean of three determinations; for antiproliferative activity (in words): in vitro antiproliferative activity, result in words. Here is the method: (§1) Cell lines: DU-145 (brain metastasis carcinoma of the prostate) and MDA MB-231 (metastatic pleural effusion of breast adenocarcinoma) established human cell lines were obtained from ATCC Global Bioresource Center. Cells were maintained in a 5 % CO2 humidified atmosphere at 37 °C in RPMI-1640 medium, supplemented with 10 % fetal bovine serum, penicillin, (100 U mL^−1), and streptomycin (0.1 mg mL^−1). The effect of drugs on tubule formation was assessed using an angiogenesis kit (TCS-Cellworks).
(§2) Antiproliferative assays: DU-145 and MDA MB-231 cells were seeded into 96-well microtitre plates (5000 cells per well) and treated with compound (10^−9–10^−4 M) or with vehicle control. At 96 h post-treatment, live cell counts were determined by WST-1 cell proliferation assay (Roche, Penzberg, Germany), as per the manufacturer’s instructions. Viability results were expressed as a percentage of mean control values resulting in the calculation of the 50 % growth inhibition (GI50). All experiments were performed in triplicate.
A general note: Tetrazolium assays rely on reduction of a dye to a coloured formazan, in cell work by metabolically active cells.

The subject of assay [2] is MDA MB-231 human breast cancer cells. As to the kind of experiment: Antiproliferative assay (WST-1, 96 h), MDA MB-231. The assay is classed as cell-based. The settings on record: MDA MB-231 cells, WST-1, mean of three determinations. Here is the method: as §1, §2

The term GI50 denotes the concentration that inhibits growth by half.

With `COc1ccc(C(=O)N2CCc3cc(OCc4ccccc4)c(OC)cc3C2)cc1OC` [14 e, 6-Benzyloxy-2-(3,4-dimethoxybenzoyl)-7-methoxy-1,2,3,4-tetra-hydroisoquinoline], in assay [1], the GI50 came to 26.7 µM. With `COc1ccc(C(=O)N2CCc3cc(OS(N)(=O)=O)c(OC)cc3C2=O)cc1OC` [17 e, 2-(3,4-Dimethoxybenzoyl)-7-methoxy-6-sulfamoyloxy-3,4-dihydroisoquinolin-1(2H)-one], the GI50 in assay [1] is 3.4 µM; in assay [2], 2.08 µM. On to `COc1cc(OC)cc(C(=O)N2CCc3cc(O)c(OC)cc3C2)c1` [18 b, 2-(3,5-Dimethoxybenzoyl)-6-hydroxy-7-methoxy-1,2,3,4-tetrahydroisoquinoline], for which the GI50 in assay [1] was 6.4 µM.

Regarding `COc1cc2c(cc1O)CCN(S(=O)(=O)c1ccccc1OC)C2=O` [11 a, 6-Hydroxy-7-methoxy-2-((2-methoxyphenyl)sulfonyl)-3,4-dihydroisoquinolin-1(2H)-one], the figures for the GI50 in assay [1] and in assay [2] were above 100 µM and 13.4 µM, respectively. For the molecule `COc1ccccc1CN1CCc2cc(OS(N)(=O)=O)c(OC)cc2C1=O` [9 a, 7-Methoxy-2-(2-methoxybenzyl)-6-sulfamoyloxy-3,4-dihydroisoquinolin-1(2H)-one], the GI50 in assay [1] is above 100 µM. As for `COc1cccc(S(=O)(=O)N2CCc3cc(OCc4ccccc4)c(OC)cc3C2=O)c1` [10 b, 6-Benzyloxy-7-methoxy-2-((3-methoxyphenyl)sulfonyl)-3,4-dihydroisoquinolin-1(2H)-one], the GI50 in assay [1] and in assay [2] was above 100 µM each time. For the molecule `COc1cc2c(cc1OS(N)(=O)=O)CCN(C(=O)c1ccccc1OC)C2=O` [17 a, 2-(2-Methoxybenzoyl)-7-methoxy-6-sulfamoyloxy-3,4-dihydroisoquinolin-1(2H)-one], the 50% growth inhibitory concentration (GI50) in assay [1] came to 9.1 µM; in assay [2] it was 7.1 µM. The corresponding values for `COc1ccc(S(=O)(=O)N2CCc3cc(OS(N)(=O)=O)c(OC)cc3C2=O)cc1` [12 c, 7-Methoxy-2-((4-methoxyphenyl)sulfonyl)-6-(sulfamoyloxy)-3,4-dihydroisoquinolin-1(2H)-one] are above 100 µM and above 100 µM. Consider `COc1ccc(C(=O)N2CCc3cc(OS(N)(=O)=O)c(OC)cc3C2)cc1OC` [19 a, 2-(3,4-Dimethoxybenzoyl)-7-methoxy-6-sulfamoyloxy-1,2,3,4-tetrahydroisoquinoline], for which, in assay [1], the GI50 was above 100 µM and the “antiproliferative activity (in words)” value was “completely inactive”.

For the molecule `COc1cccc(C(=O)N2CCc3cc(OS(N)(=O)=O)c(OC)cc3C2=O)c1` [17 b, 2-(3-Methoxybenzoyl)-7-methoxy-6-sulfamoyloxy-3,4-dihydroisoquinolin-1(2H)-one], the 50% growth inhibitory concentration (GI50) amounted to 5.3 µM in assay [1] and 3.5 µM in assay [2]. The corresponding values for `COc1cccc(S(=O)(=O)N2CCc3cc(O)c(OC)cc3C2=O)c1` [11 b, 6-Hydroxy-7-methoxy-2-((3-methoxyphenyl)sulfonyl)-3,4-dihydroisoquinolin-1(2H)-one] are above 100 µM and above 100 µM. Take `COc1ccc(C(=O)N2CCc3cc(OCc4ccccc4)c(OC)cc3C2=O)cc1` [15 d, 6-Benzyloxy-2-(4-methoxybenzoyl)-7-methoxy-3,4-dihydroisoquinolin-1(2H)-one]: the GI50 in assay [1] was above 100 µM.

`COc1cc(OC)cc(C(=O)N2CCc3cc(OCc4ccccc4)c(OC)cc3C2=O)c1` [15 f, 6-Benzyloxy-2-(3,5-dimethoxybenzoyl)-7-methoxy-3,4-dihydroisoquinolin-1(2H)-one]: the GI50 in assay [1] was above 100 µM.

Turning to `COc1cc2c(cc1OCc1ccccc1)CCN(S(=O)(=O)c1cccc(Cl)c1)C2=O` [10 d, 6-Benzyloxy-7-methoxy-2-((3-chlorophenyl)sulfonyl)-3,4-dihydroisoquinolin-1(2H)-one], the 50% growth inhibitory concentration (GI50) in assay [1] and in assay [2] was above 100 µM each time. `COc1ccc(C(=O)N2CCc3cc(OCc4ccccc4)c(OC)cc3C2=O)cc1OC` [15 e, 6-Benzyloxy-2-(3,4-dimethoxybenzoyl)-7-methoxy-3,4-dihydroisoquinolin-1(2H)-one] gave a concentration for 50% growth inhibition (GI50) in assay [1] above 100 µM. Take `COc1cccc(C(=O)N2CCc3cc(O)c(OC)cc3C2=O)c1` [16 b, 6-Hydroxy-2-(3-methoxybenzoyl)-7-methoxy-3,4-dihydroisoquinolin-1(2H)-one]: the GI50 in assay [1] worked out at 3.63 µM; in assay [2], 1.89 µM.

For the molecule `COc1cc2c(cc1O)CCN(C(=O)c1cccc(C#N)c1)C2=O` [16 c, 2-(3-Cyanobenzoyl)-6-hydroxy-7-methoxy-3,4-dihydroisoquinolin-1(2H)-one], the GI50 was found to be 70 µM in assay [1] and 37.4 µM in assay [2]. `COc1cc2c(cc1OS(N)(=O)=O)CCN(Cc1cc(OC)c(OC)c(OC)c1)C2=O` [9 e, 7-Methoxy-6-sulfamoyloxy-2-(3,4,5-trimethoxybenzyl)-3,4-dihydroisoquinolin-1(2H)-one] returned a GI50 in assay [1] above 100 µM. As to `COc1cc2c(cc1OCc1ccccc1)CCN(C(=O)c1cc(OC)c(OC)c(OC)c1)C2=O` [15 g, 6-Benzyloxy-7-methoxy-2-(3,4,5-trimethoxybenzoyl)-3,4-dihydroisoquinolin-1(2H)-one], the values for the GI50 in assay [1] and in assay [2] were above 100 µM and 77.5 µM, respectively.

The molecule `COc1cc2c(cc1OCc1ccccc1)CCN(Cc1cc(OC)c(OC)c(OC)c1)C2=O` [7 e, 6-Benzyloxy-7-methoxy-2-(3,4,5-trimethoxybenzyl)-3,4-dihydroisoquinolin-1(2H)-one] showed a concentration for 50% growth inhibition (GI50) in assay [1] above 100 µM.

For the molecule `COc1cc(CN2CCc3cc(OS(N)(=O)=O)c(OC)cc3C2=O)cc(OC)c1` [9 d, 7-Methoxy-2-(3,5-dimethoxybenzyl)-6-sulfamoyloxy-3,4-dihydroisoquinolin-1(2H)-one], in assay [1], the GI50 is above 100 µM.

As for `COc1cc2c(cc1O)CCN(Cc1cc(OC)c(OC)c(OC)c1)C2=O` [8 e, 6-Hydroxy-7-methoxy-2-(3,4,5-trimethoxybenzyl)-3,4-dihydroisoquinolin-1(2H)-one], in assay [1], the GI50 is above 100 µM. The same measure, in the same setting: with `COc1cc(OC)cc(C(=O)N2CCc3cc(OCc4ccccc4)c(OC)cc3C2)c1` [14 f, 6-Benzyloxy-2-(3,5-dimethoxybenzoyl)-7-methoxy-1,2,3,4-tetra-hydroisoquinoline] the figure was 46.8 µM. As to `COc1cc2c(cc1OCc1ccccc1)CCN(C(=O)c1cc(OC)c(OC)c(OC)c1)C2` [14 g, 6-Benzyloxy-7-methoxy-2-(3,4,5-trimethoxybenzoyl)-1,2,3,4-tetrahydroisoquinoline], the GI50 in assay [1] is 62.7 µM; in assay [2], 18.9 µM. The corresponding values for `COc1cc2c(cc1OCc1ccccc1)CCN(S(=O)(=O)c1ccccc1OC)C2=O` [10 a, 6-Benzyloxy-7-methoxy-2-((2-methoxyphenyl)sulfonyl)-3,4-dihydroisoquinolin-1(2H)-one] are above 100 µM and above 100 µM. With `COc1cc2c(cc1OCc1ccccc1)CCN(C(=O)c1ccccc1OC)C2=O` [15 a, 6-Benzyloxy-2-(2-methoxybenzoyl)-7-methoxy-3,4-dihydroisoquinolin-1(2H)-one], the GI50 was above 100 µM in assay [1] and 43.6 µM in assay [2].

As for `COc1cc(CN2CCc3cc(OCc4ccccc4)c(OC)cc3C2=O)cc(OC)c1` [7 d, 6-Benzyloxy-7-methoxy-2-(3,5-dimethoxybenzyl)-3,4-dihydroisoquinolin-1(2H)-one], in assay [1], the concentration for 50% growth inhibition (GI50) was above 100 µM. Same read-out and setting: in the case of `COc1ccc(CN2CCc3cc(OS(N)(=O)=O)c(OC)cc3C2=O)cc1` [9 c, 7-Methoxy-2-(4-methoxybenzyl)-6-sulfamoyloxy-3,4-dihydroisoquinolin-1(2H)-one] it was above 100 µM. With `COc1cc2c(cc1O)CCN(C(=O)c1ccc(OC)c(OC)c1)C2` [18 a, 2-(3,4-Dimethoxybenzoyl)-6-hydroxy-7-methoxy-1,2,3,4-tetrahydroisoquinoline], in assay [1], the concentration for 50% growth inhibition (GI50) is above 100 µM and the “antiproliferative activity (in words)” value was “completely inactive”. The molecule `COc1cc(CN2CCc3cc(O)c(OC)cc3C2=O)cc(OC)c1` [8 d, 6-Hydroxy-7-methoxy-2-(3,5-dimethoxybenzyl)-3,4-dihydroisoquinolin-1(2H)-one] displayed a GI50 in assay [1] above 100 µM. On to `COc1cc2c(cc1O)CCN(C(=O)c1ccccc1OC)C2=O` [16 a, 6-Hydroxy-2-(2-methoxybenzoyl)-7-methoxy-3,4-dihydroisoquinolin-1(2H)-one], for which the figures for the GI50 in assay [1] and in assay [2] were 6.42 µM and 5.6 µM, respectively.

Regarding `COc1cc2c(cc1OCc1ccccc1)CCN(C(=O)c1cccc(C#N)c1)C2=O` [15 c, 6-Benzyloxy-2-(3-cyanobenzoyl)-7-methoxy-3,4-dihydroisoquinolin-1(2H)-one], the 50% growth inhibitory concentration (GI50) in assay [1] and in assay [2] was above 100 µM in each case. In assay [1], `COc1cc2c(cc1O)CCN(Cc1ccccc1OC)C2=O` [8 a, 6-Hydroxy-7-methoxy-2-(2-methoxybenzyl)-3,4-dihydroisoquinolin-1(2H)-one] showed a concentration for 50% growth inhibition (GI50) above 100 µM.

Take `COc1ccc(C(=O)N2CCc3cc(O)c(OC)cc3C2=O)cc1` [16 d, 6-Hydroxy-2-(4-methoxybenzoyl)-7-methoxy-3,4-dihydroisoquinolin-1(2H)-one]: in assay [1], the concentration for 50% growth inhibition (GI50) is above 100 µM and the “antiproliferative activity (in words)” value was “inactive”. Molecule `COc1cc(OC)cc(C(=O)N2CCc3cc(OS(N)(=O)=O)c(OC)cc3C2)c1` [19 b, 2-(3,5-Dimethoxybenzoyl)-7-methoxy-6-sulfamoyloxy-1,2,3,4-tetrahydroisoquinoline] gave a 50% growth inhibitory concentration (GI50) in assay [1] of 9 µM.
